Data published in patent EP2508526A1, “Spiroalkene carboxamide derivatives and their use as chemokine receptor modulators” (Ares Trading SA, priority 2011, dated 2012).

Assays:
hCCR2b [1] = molecular target: T1, hCCR2b (Homo sapiens, UniProt P41597); assay: Chemotaxis of L1.2-hCCR2b cells towards MCP-1 P8A; type: cell-based; set-up: expressed in transfected cells; host or cells: L1.2 cells (murine pre-B cell line); conditions: MCP-1 P8A at EC80, 4-hours incubation
T1 sequence (P41597 1-360 isoform P41597-2): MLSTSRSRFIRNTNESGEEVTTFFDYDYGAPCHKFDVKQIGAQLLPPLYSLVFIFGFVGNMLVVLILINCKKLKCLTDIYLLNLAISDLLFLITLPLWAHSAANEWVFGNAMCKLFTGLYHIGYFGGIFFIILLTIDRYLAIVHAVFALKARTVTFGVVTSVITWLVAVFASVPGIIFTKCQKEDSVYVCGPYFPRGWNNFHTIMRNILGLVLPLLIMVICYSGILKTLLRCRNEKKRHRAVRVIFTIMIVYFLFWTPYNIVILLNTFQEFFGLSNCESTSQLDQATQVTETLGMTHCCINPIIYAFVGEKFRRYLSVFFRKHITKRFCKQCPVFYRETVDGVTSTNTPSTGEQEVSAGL
Text: L1.2 cells, a murine pre-LB cellline, were transfected with the human CCR2b receptor for use in the transmigration of L1.2 hCCR2b on the chemotaxis system: ChemotX® provided by Neuroprobes (8µm pore size). Monocyte Chemoattractant Protein-1 (MCP-1) stimulation leads to activate the CCR2 receptor and inititates a cascade of events including chemotaxis. MCP-1 ligand will be replaced by MCP-1 P8A protein with genetic modifications to prevent the oligomerization of the protein. L1.2-hCCR2b are incubated in white RPMI 1640, 5% v/v Heat inactivated FCS, 1% v/v penicillin-streptomycin supplemented with 5 mM Butyrate overnight to enhance receptor expression level at the cell surface. L1.2-hCCR2b cells and compounds in DMSO (1% final) are preincubated 15 min in chemotaxis medium and placed in the Upper Chamber of the chemotaxis system. The MCP-1 P8A initially present at its EC80 (concentration of MCP-1 P8A which allows 80% of cell migration) in the Lower Chamber (with compounds to avoid any compound gradient) diffuses through the pores of the membrane and interacts with the CCR2 receptor of cells present in the upper chamber. The tested compounds can also potentially interact with CCR2 receptor and therefore inhibit the migration of the cells from the Upper Chamber to the Lower Chamber. After a 4-hours incubation time at 37°C, 5% CO2, a quantification of the cells which have migrated is performed using the Cyquant (Invitrogen) and a fluorescent reader as a Fluostar (exc: 485nm; emm: 520 nm). Specific migration is assessed by substracting the basal migration of cells without any stimulation. Chemotaxis data were analyzed using the Genedata Screener® software.

hCCR2b [2] = molecular target: T1, hCCR2b; assay: CCR2 binding assay ([125I]MCP-1, SPA, CHO cell membranes); set-up: expressed in transfected cells; host or cells: CHO cells (membrane preparation); conditions: membranes from CHO cells expressing hCCR2b, 50 pM [125I]MCP-1; read-out: Binding hCCR2 (Ki)
In short: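 CHO membranes expressing hCCR2b (1–5 µg/well) with 50 pM [125I]MCP-1 and WGA SPA beads in 50 mM HEPES pH 7.4, 5 mM MgCl2, 1 mM CaCl2, 0.1% BSA, 1% DMSO; 90 min RT with agitation. Bound counts on scintillation counter; nonspecific defined by 1000-fold excess unlabeled compound.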

Ki (hCCR2b [1]) [nM]	Ki (hCCR2b [2]) [nM]	SMILES
< 50	< 50	CCN1CCC2(CC1)OC(=O)C(C)=C2C(=O)N1CCc2ccc(C(F)(F)F)cc2C1 [Compound 97, 8-ethyl-3-methyl-4-{[7-(trifluoromethyl)-3,4-dihydroisoquinolin-2(1H)-yl]carbonyl}-1-oxa-8-azaspiro[4.5]dec-3-en-2-one]
< 50	< 50	CCN1CCC2(CC1)OC(=O)C(C)=C2C(=O)N1CCN(c2cccc(C(F)(F)F)c2)CC1 [Compound 74, 8-ethyl-3-methyl-4-({4-[3-(trifluoromethyl)phenyl]piperazin-1-yl}carbonyl)-1-oxa-8-azaspiro[4.5]dec-3-en-2-one]
< 50	< 50	CC1=C(C(=O)N2CCc3ccc(C(F)(F)F)cc3C2)C2(CCN(C(C)C)CC2)OC1=O [Compound 62, 8-isopropyl-3-methyl-4-{[7-(trifluoromethyl)-3,4-dihydroisoquinolin-2 (1H)-yl]carbonyl}-1-oxa-8-azaspiro[4.5]dec-3-en-2-one]
< 50	< 50	CC1=C(C(=O)N2COc3ccc(C(F)(F)F)cc3C2)C2(CCN(C(C)C)CC2)OC1=O [Compound 66, 8-isopropyl-3-methyl-4-{[6-(trifluoromethyl)-2H-1,3-benzoxazin-3(4H)-yl]carbonyl}-1-oxa-8-azaspiro[4.5]dec-3-en-2-one]
–	50 to 100	COC(CN1CCC2(CC1)OC(=O)C(C)=C2C(=O)N1CCN(c2cccc(C(F)(F)F)c2)CC1)c1ccccc1 (centres unmarked) [Compound 7, 8-(2-methoxy-2-phenylethyl)-3-methyl-4-({4-[3-(trifluoromethyl)phenyl]piperazin-1-yl}carbonyl)-1-oxa-8-azaspiro[4.5]dec-3-en-2-one]
–	500 to 2000	CC1=C(C(=O)N2CCN(c3cccc(C#N)c3)CC2)C2(CCN(Cc3ccccc3)CC2)OC1=O [Compound 111, 3-{4-[(8-benzyl-3-methyl-2-oxo-1-oxa-8-azaspiro[4.5]dec-3-en-4-yl)carbonyl]piperazin-1-yl}benzonitrile]
< 50	< 50	CC1=C(C(=O)N2CCc3ccc(C(F)(F)F)cc3C2)C2(CCN(C3CCOCC3)CC2)OC1=O [Compound 26, 3-methyl-8-(tetrahydro-2H-pyran-4-yl)-4-{[7-(trifluoromethyl)-3,4-dihydroisoquinolin-2(1H)-yl]carbony}-1-oxa-8-azaspiro[4.5]dec-3-en-2-one]
–	100 to 500	CC1=C(C(=O)N2CCN(c3cccc(C(F)(F)F)c3)CC2)C2(CCN(CCCC(=O)O)CC2)OC1=O [Compound 11, 4-[3-methyl-2-oxo-4-({4-[3-(trifluoromethyl)phenyl]piperazin-1-yl}carbonyl)-1-oxa-8-azaspiro[4.5]dec-3-en-8-yl]butanoic acid]
–	< 50	CC1=C(C(=O)NCC(=O)Nc2cccc(C(F)(F)F)c2)C2(CCN(C3CCOCC3)CC2)OC1=O [Compound 69, 3-methyl-2-oxo-N-(2-oxo-2-{[3-(trifluoromethyl)phenyl]amino}ethyl)-8-(tetrahydro-2H-pyran-4-yl)-1-oxa-8-azaspiro[4.5]dec-3-ene-4-carboxamide]
–	500 to 2000	CCN1CCC2(CC1)OC(=O)C(C)=C2C(=O)N1CCCN(c2cccc(F)c2)CC1 [Compound 52, 8-ethyl-4-{[4-(3-fluorophenyl)-1,4-diazepan-1-yl]carbonyl}-3-methyl-1-oxa-8-azaspiro[4.5]dec-3-en-2-one]
–	< 50	CCN1CCC2(CC1)OC(=O)C(C)=C2C(=O)N1CCN(c2cccc(C(F)(F)F)c2)CC1C (centres unmarked) [Compound 84, 8-ethyl-3-methyl-4-({2-methyl-4-[3-(trifluoromethyl)phenyl]piperazin-1-yl}carbonyl)-1-oxa-8-azaspiro[4.5]dec-3-en-2-one]
–	< 50	CCN1CCC2(CC1)OC(=O)C(C)=C2C(=O)N1CCc2ncc(C(F)(F)F)cc2C1 [Compound 85, 8-ethyl-3-methyl-4-{[3-(trifluoromethyl)-7,8-dihydro-1,6-naphthyridin-6(5H)-yl]carbonyl}-1-oxa-8-azaspiro[4.5]dec-3-en-2-one]
–	< 50	CCCN1CCC2(CC1)OC(=O)C(C)=C2C(=O)N1CCc2ccc(C(F)(F)F)cc2C1 [Compound 28, 3-methyl-8-propyl-4-{[7-(trifluoromethyl)-3,4-dihydroisoquinolin-2(1H)-yl]carbonyl}-1-oxa-8-azaspiro[4.5]dec-3-en-2-one]
–	< 50	COc1ccccc1CCN1CCC2(CC1)OC(=O)C(C)=C2C(=O)N1CCc2ccc(C(F)(F)F)cc2C1 [Compound 65, 8-[2-(2-methoxyphenyl)ethyl]-3-methyl-4-{[7-(trifluoromethyl)-3,4-dihydroisoquinolin-2(1H)-yl]carbonyl}-1-oxa-8-azaspiro[4.5]dec-3-en-2-one]
–	< 50	CC1=C(C(=O)N2CCN(c3cccc(C(F)(F)F)c3)CC2)C2(CCN(C3CCCOC3)CC2)OC1=O (centres unmarked) [Compound 23]
–	< 50	CC1=C(C(=O)N2CCc3ccc(C(F)(F)F)cc3C2)C2(CCN(C3CCOC3)CC2)OC1=O (centres unmarked) [Compound 34, 3-methyl-8-(tetrahydrofuran-3-yl)-4-{[7-(trifluoromethyl)-3,4-dihydroisoquinolin-2(H)-yl]carbonyl}-1-oxa-8-azaspiro[4.5]dec-3-en-2-one]
–	50 to 100	CC1=C(C(=O)N2CCc3ccc(C(F)(F)F)cc3C2)C2(CCN(C3COC3)CC2)OC1=O [Compound 32, 3-methyl-8-oxetan-3-yl-4-{[7-(trifluoromethyl)-3,4-dihydroisoquinolin-2(1H)-yl]carbonyl}-1-oxa-8-azaspiro[4.5]dec-3-en-2-one]
–	< 50	CC1=C(C(=O)N2CCc3ncc(C(F)(F)F)cc3C2)C2(CCN(C3CCC(O)CC3)CC2)OC1=O (centres unmarked) [Compound 45, 8-(4-hydroxycyclohexyl)-3-methyl-4-{[3-(trifluoromethyl)-7,8-dihydro-1,6-naphthyridin-6(5H)-yl]carbonyl}-1-oxa-8-azaspiro[4.5]dec-3-en-2-one]
–	< 50	CC1=C(C(=O)N2CCc3ncc(C(F)(F)F)cc3C2)C2(CCN(C(C)C)CC2)OC1=O [Compound 115, 8-isopropyl-3-methyl-4-{[3-(trifluoromethyl)-7,8-dihydro-1,6-naphthyridin-6(5H)-yl]carbonyl}-1-oxa-8-azaspiro[4.5]dec-3-en-2-one]
–	< 50	CC1=C(C(=O)N2CCN(c3cccc(C(F)(F)F)c3)CC2)C2(CCN(C3CCCCC3)CC2)OC1=O [Compound 106, 8-cyclohexyl-3-methyl-4-({4-[3-(trifluoromethyl)phenyl]piperazin-1-yl}carbonyl)-1-oxa-8-azaspiro[4.5]dec-3-en-2-one]
–	500 to 2000	CCN1CCC2(CC1)OC(=O)C(C)=C2C(=O)N1CCN(c2cccc(C)c2)CC1 [Compound 68, 8-ethyl-3-methyl-4-{[4-(3-methylphenyl)piperazin-1-yl]carbonyl}-1-oxa-8-azaspiro[4.5]dec-3-en-2-one]
